Patent publication USRE38863E1, “Chemotaxis assay procedure” (priority 1995, dated 2005)
“And” between values parts separate entries of the source, which are not always exact repeats. Equal values may be shown once.

Tested on: HL-60 cells
Assay: Chemotaxis assay: fluorescence of Di-I labeled cells migrated across radiation opaque membrane
Type: cell-based
Experimental: The cell line HL-60 (ATCC No. CCL 240) was maintained in logarithmic growth phase as a suspension culture at about 10^6 cells/mL. in RPMI 1640 medium (Mediatech Cellgrow, Fisher Scientific, Pittsburgh, PA.) supplemented with 20% (volume by volume) fetal bovine serum. (Hyclone Laboratories, Salt Lake City, UT). The cells were differentiated into mature myelocytes and neutrophils by incubating the cells for 48 hours at 37° C. in media containing 1.5% (volume by volume) dimethylsulfoxide.
Following the treatment with dimethylsulfoxide, the cells were incubated with 50 μM Di-I fluorescent dye (Molecular Probes, Inc., Eugene, OR) at room temperature for 0.5-2 hours. The cells were then washed with Hanks' Balanced Salt Solution (“HBSS”) (Sigma Chemical Co., St. Louis, MO.) and re-suspended in HBSS to achieve a cell concentration of 10^6 cells/mL. The fluorescence of 0.5 mL. of cell suspension was measured in a Cytofluor™ 2300 fluorescent plate reader (Millipore Corp., Marlborough, MA.).
Membrane 1: Polycarbonate film having a plurality of pores of 8 μm diameter were coated with four molecular layers of carbon and one layer of an admixture of gold and palladium in a vacuum evaporator. […] 6 mm disks of the radiation opaque membrane were glued to the bottom of inserts similar to the Millicell HA-12 mm (Millipore Corp.) or the Transwell-6.5 mm (Costar Corp., Cambridge, MA.) inserts with clear silicone rubber cement.
Membrane 2: A non-porous polyester film (18 μm thick) containing a blue dye (Aquired Technology Inc., Alpharetta, GA.) was subjected to atomic etching to produce a 10 μm thick radiation opaque membrane containing a plurality of pores of 8 μm diameter having a combined radiation blocking efficiency of approximately 99%. 6 mm disks of the radiation opaque membrane were glued to the bottoms of inserts as with membrane 1.
Each insert equipped with the either membrane 1 or membrane 2 were placed in a well of a 24-well culture plate (Falcon, Fisher Scientific). 0.5 mL of labeled cell suspension was placed inside each insert. The plate was incubated for 30 minutes at 37° C. to allow the cells to settle on the radiation opaque membrane. The fluorescence of each well was then measured with the Cytofluor™ 2300 to obtain a zero time reading. 0.5 mL of either N-formyl methionyl leucyl phenylalanine (“f-MLP”) (Sigma Chemical Co.) or HBBS was then added to each well. The fluorescence in each well was then measured at periodic time intervals using the Cytofluor™ 2300 at sensitivity setting 4. Results using membrane 1 are reported in Tables 1 and 2 and graphically illustrated in FIGS. 4 and 5. Results using membrane 2 are reported in Table 3 and graphically illustrated in FIGS. 6 and 7.

[1] = membrane 1, f-MLP/f-MLP (f-MLP also added to cell suspension immediately before start), 10^−7 M
[2] = membrane 1, insert/well HBSS/f-MLP, f-MLP Conc. = 10^−8 M
[3] = membrane 1, insert/well f-MLP/f-MLP (f-MLP added to cell suspension immediately before start), 10^−8 M
[4] = membrane 1, test solutions well/insert HBSS/f-MLP, f-MLP Conc. = 10^−7 M
[5] = membrane 2, Millicell-type insert, well 20: Insert leaked, insert/well HBSS/f-MLP, 2 × 10^−8 M
[6] = membrane 2, Millicell-type inserts, insert/well HBSS/f-MLP, f-MLP Conc. = 2 × 10^−8 M
[7] = membrane 2, Millicell-type inserts, insert/well f-MLP/f-MLP (f-MLP added to cell suspension immediately before start), 2 × 10^−8 M
[8] = membrane 2, Transwell-type inserts, insert/well HBSS/f-MLP, f-MLP Conc. = 2 × 10^−8 M
[9] = membrane 2, Transwell-type inserts, insert/well f-MLP/f-MLP (f-MLP added to cell suspension immediately before start), 2 × 10^−8 M

CSCC[C@H](NC=O)C(=O)N[C@@H](CC(C)C)C(=O)N[C@@H](Cc1ccccc1)C(=O)O [f-MLP, N-formyl methionyl leucyl phenylalanine]
Fluorescence 0 hr. (membrane 1, f-MLP/f-MLP (f-MLP also added to cell suspension immediately before start), 10^−7 M, 0 hr.): 706 | Fluorescence 1 hr. [1]: 654 | Fluorescence 2 hr. [1]: 708 | Fluorescence 3 hr. [1]: 732 | Fluorescence 4 hr. [1]: 728 | Fluorescence 5 hr. [1]: 753 | FLUORESCENCE 0 min. (membrane 1, insert/well HBSS/f-MLP, f-MLP Conc. = 10^−8 M, 0 min. (zero time reading)): 2515 and 2927 and 2895 and 2631 and 2594 | FLUORESCENCE 15 min. [2]: 3388 and 4195 and 4165 and 3398 and 3446 | FLUORESCENCE 30 min. [2]: 3594 and 4475 and 4400 and 3584 and 3707 | FLUORESCENCE 60 min. [2]: 3614 and 4642 and 4539 and 3645 and 3813 | FLUORESCENCE 90 min. [2]: 3717 and 4761 and 4642 and 3728 and 3932 | FLUORESCENCE 150 min. [2]: 3770 and 4788 and 4655 and 3728 and 3999 | FLUORESCENCE 0 min. (membrane 1, insert/well f-MLP/f-MLP (f-MLP added to cell suspension immediately before start), 10^−8 M, 0 min.): 2854 | FLUORESCENCE 15 min. [3]: 2675 | FLUORESCENCE 30 min. [3]: 2721 | FLUORESCENCE 60 min. [3]: 2721 | FLUORESCENCE 90 min. [3]: 2783 | FLUORESCENCE 150 min. [3]: 2783 | Fluorescence 0 hr. (membrane 1, test solutions well/insert HBSS/f-MLP, f-MLP Conc. = 10^−7 M, 0 hr. (zero time reading)): 383 | Fluorescence 1 hr. [4]: 1046 | Fluorescence 2 hr. [4]: 1355 | Fluorescence 3 hr. [4]: 1433 | Fluorescence 4 hr. [4]: 1370 | Fluorescence 5 hr. [4]: 1359 | Fluorescence 0 hr. (membrane 2, Millicell-type insert, well 20: Insert leaked, insert/well HBSS/f-MLP, 2 × 10^−8 M, 0 hr.): 1228 | Fluorescence 0.5 hr. [5]: 5928 | Fluorescence 1 hr. [5]: 6063 | Fluorescence 2 hr. [5]: 6342 | Fluorescence 3 hr. [5]: 6504 | Fluorescence 0 hr. (membrane 2, Millicell-type inserts, insert/well HBSS/f-MLP, f-MLP Conc. = 2 × 10^−8 M, 0 hr. (zero time reading)): 1277 and 1242 | Fluorescence 0.5 hr. [6]: 1573 and 1207 | Fluorescence 1 hr. [6]: 1701 and 1830 | Fluorescence 2 hr. [6]: 1836 and 1931 | Fluorescence 3 hr. [6]: 1851 and 1969 | Fluorescence 0 hr. (membrane 2, Millicell-type inserts, insert/well f-MLP/f-MLP (f-MLP added to cell suspension immediately before start), 2 × 10^−8 M, 0 hr.): 1187 and 1231 | Fluorescence 0.5 hr. [7]: 1181 and 1325 | Fluorescence 1 hr. [7]: 1516 and 1454 | Fluorescence 2 hr. [7]: 1622 and 1541 | Fluorescence 3 hr. [7]: 1673 and 1604 | Fluorescence 0 hr. (membrane 2, Transwell-type inserts, insert/well HBSS/f-MLP, f-MLP Conc. = 2 × 10^−8 M, 0 hr. (zero time reading)): 1055 and 1064 and 1097 | Fluorescence 0.5 hr. [8]: 1770 and 1454 and 1775 | Fluorescence 1 hr. [8]: 2066 and 1846 and 2185 | Fluorescence 2 hr. [8]: 2351 and 2143 and 2411 | Fluorescence 3 hr. [8]: 2536 and 2292 and 2432 | Fluorescence 0 hr. (membrane 2, Transwell-type inserts, insert/well f-MLP/f-MLP (f-MLP added to cell suspension immediately before start), 2 × 10^−8 M, 0 hr.): 1049 and 961 | Fluorescence 0.5 hr. [9]: 1277 and 1245 | Fluorescence 1 hr. [9]: 1413 and 1390 | Fluorescence 2 hr. [9]: 1538 and 1564 | Fluorescence 3 hr. [9]: 1582 and 1711
